Laboratory results published in article PMC7482066, “Unstable Mechanisms of Resistance to Inhibitors of Escherichia coli Lipoprotein Signal Peptidase” (mBio, 2020).
“Also recorded” adds a separate entry of the source.

What was measured:
E. coli CFT073 [1] = experiment: Bactericidal activity, CFU over time; assay type: cell-based; details: G0790 at 2× MIC, two independent experiments in duplicates
Lpp = Lpp localization in peptidoglycan-associated and membrane fractions, Western blot; assay type: cell-based, E. coli; details: CFT073, 2× MIC G0790
Procedure: Purification of peptidoglycan-associated proteins (PAPs) was performed according to published methods ([43], [67], [68]) with some modifications. Briefly, bacteria were harvested in mid-exponential phase for treatment and then subjected to PAP extraction by resuspending cell pellets from an optical density (OD; A600) of 10 in 6 ml of PAP extraction buffer containing 2% (wt/vol) SDS in 100 mM Tris-HCl (pH 8.0) with 100 mM NaCl, 10% glycerol, and cOmplete mini EDTA-free protease inhibitor cocktail (Sigma-Aldrich). After 60 min at room temperature (RT), the extraction was subjected to centrifugation at 100,000 × g for 60 min at 22°C, and the pellet, containing peptidoglycan-associated proteins, was washed once with the same PAP extraction buffer with centrifugation at 100,000 × g for 30 min and resuspended in 200 μl of PAP extraction buffer (referred to as the SDS-insoluble or PAP fraction). The supernatant containing the SDS-soluble fraction was aliquoted and frozen (referred to as the non-PAP fraction). Both fractions were treated with equal volumes of BugBuster buffer prior to the addition of sample buffer for Western immunoblotting as described above.
The inner and outer membrane fractionations of bacterial cells were performed according to published methods ([69]), with some modifications. […]

E. coli CFT073 [2] = experiment: Electron microscopy / live-cell imaging of morphology; assay type: cell-based; details: CFT073, 2× MIC, 1 h (EM)
Procedure: Electron microscopy was performed as previously described ([61]). […] Cells were immediately placed between a coverslip and a 1% MHII agarose pad containing 12.4 μM G0790 and 10 μg/ml gentamicin for imaging. Cells were maintained at 37°C during imaging with a stage-top chamber (Okolab Inc.). Cells were imaged on a Nikon Eclipse Ti inverted confocal microscope (Nikon Instruments Inc.) coupled with an UltraVIEW VoX (PerkinElmer Inc.) and a 100× (numerical aperture [NA] 1.40) oil-immersion lens objective. Images were captured at various times using an ORCA-Flash 4.0 CMOS camera (Hamamatsu Photonics), collected using Volocity software (Quorum Technologies), and processed using Fiji ([66]).

[3] = tested on: G0790-resistant E. coli CFT073; experiment: Population analysis profile (heteroresistance); assay type: cell-based; details: MHII agarose, 18 h, 37°C
Procedure: The population analysis profiles of G0790 heteroresistant subpopulations were determined according to a method described previously ([79]). Briefly, three independent cultures for each G0790-resistant mutant strain were grown overnight at 37°C in MHBII containing G0790 at sub-MICs to maintain selective pressure. Five microliters or 10-fold serial dilution (10^−1 to 10^−7) in duplicates for each culture were transferred to MHII agarose plates or MHII agarose plates containing a range of G0790 concentrations (100, 75, 50, 37.5, 25, 12.5, 6.25, 3.125, 1.56, 0.8, and 0.4 μM). CFU were enumerated after incubation at 37°C for 18 h. Heteroresistance was defined using the criteria published by El-Halfawy and colleagues, which states there should be a >8-fold difference between the highest noninhibitory concentration and the highest inhibitory concentration ([2], [80]).

CCCCCC[C@H]1OC(=O)CNC(=O)[C@H]([C@H](C)O)NC(=O)[C@H](CN)NC(=O)[C@H](C2CCCCC2)NC(=O)[C@H](CCC)N(C)C(=O)[C@@H]1C [G0790]
Bactericidal activity (E. coli CFT073 [1]): bactericidal | Lpp localization after treatment (Lpp): loss of the peptidoglycan-associated form of Lpp in the outer membrane and its accumulation in the inner membrane | Cell morphology / membrane accumulation (E. coli CFT073 [2]): globular cell morphology and accumulation of bacterial membranes; also recorded: changes in cellular morphology and membrane accumulation | Fold difference between highest inhibitory and highest noninhibitory concentration ([3]; CFT073 4×-R3): 128 fold | Fold difference between highest inhibitory and highest noninhibitory concentration ([3]; CFT073 4×-R10): 96 fold | Fold difference between highest inhibitory and highest noninhibitory concentration ([3]; CFT073 8×-R5): 12 fold
